# According to patent US8003785B2 (Takeda Pharmaceutical Company Limited, priority 2008, dated 2011):
# Biological target: T1, PLK1 (Homo sapiens, UniProt P53350)
# T1 construct: Full-length, active GST-PLK1 is purified from Sf9 insect cells; made in house; host or cells: Sf9 insect cells
# Assay: Biochemical Characterization Assay: HTRF kinase assay, GST-PLK1 phosphorylation of GST-p53
# Conditions: GST-PLK1, GST-p53 substrate, ATP
# Experimental: Biochemical Characterization Assay
# Full-length, active GST-PLK1 is purified from Sf9 insect cells, and full-length GST-p53 is purified from E. coli. Anti-phospho p53 antibody is from Cell Signaling Technology. Europium-conjugated anti-rabbit antibody is from PerkinElmer Life and Analytical Sciences. APC-conjugated anti-GST antibody is from Prozyme.
# Six microliters of GST-PLK1 (3 ug/mL) in Kinase Assay Buffer are then added and the solution incubated at 37° C. for 35 minutes. Six microliters of solution containing 43 mM EDTA to stop the reaction and a 1:600 dilution of anti-phospho-p53 antibody in 20 mM HEPES pH 7, 50 mM NaCl, and 0.5 mg/mL BSA (Antibody Binding Buffer) are added and the solution incubated at 37° C. for 30 minutes. […] The HTRF signal is read on an Envision reader from PerkinElmer Life and Analytical Sciences.
# T1 sequence (P53350 whole entry): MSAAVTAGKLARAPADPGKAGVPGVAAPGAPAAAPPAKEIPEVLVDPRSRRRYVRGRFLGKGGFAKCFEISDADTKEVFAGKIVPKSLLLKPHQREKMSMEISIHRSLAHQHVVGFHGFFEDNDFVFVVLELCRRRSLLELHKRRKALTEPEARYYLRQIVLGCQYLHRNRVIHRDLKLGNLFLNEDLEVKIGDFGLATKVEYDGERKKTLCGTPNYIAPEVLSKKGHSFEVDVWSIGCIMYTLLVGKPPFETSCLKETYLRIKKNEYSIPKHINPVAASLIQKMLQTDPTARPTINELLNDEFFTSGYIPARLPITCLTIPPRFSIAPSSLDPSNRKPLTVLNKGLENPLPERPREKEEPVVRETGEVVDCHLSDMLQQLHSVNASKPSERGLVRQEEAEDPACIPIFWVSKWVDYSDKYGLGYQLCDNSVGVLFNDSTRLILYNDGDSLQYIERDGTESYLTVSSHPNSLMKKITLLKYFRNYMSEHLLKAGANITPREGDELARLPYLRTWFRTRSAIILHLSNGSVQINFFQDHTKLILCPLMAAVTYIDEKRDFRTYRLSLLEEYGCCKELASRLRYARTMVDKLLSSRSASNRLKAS
row,SMILES,IC50 [µM]
1,"COc1cc(C(=O)NCCc2ccc3c(c2)OCO3)ccc1Nc1ncc2c(n1)N(C1CCCC1)CC(F)(F)C(=O)N2C [Example I-43, N-(2-benzo[1,3]dioxol-5-yl-ethyl)-4-(9-cyclopentyl-7,7-difluoro-5-methyl-6-oxo-6,7,8,9-tetrahydro-5H-pyrimido[4,5-b][1,4]diazepin-2-ylamino)-3-methoxy-benzamide]",0.051 to 0.5
2,"COc1cc(C(=O)NCCN)ccc1Nc1ncc2c(n1)N(C1CCCC1)CC(F)(F)C(=O)N2C [Example I-48, N-(2-amino-ethyl)-4-(9-cyclopentyl-7,7-difluoro-5-methyl-6-oxo-6,7,8,9-tetrahydro-5H-pyrimido[4,5-b][1,4]diazepin-2-ylamino)-3-methoxy-benzamide]",0.001 to 0.05
3,"COc1cc(C(=O)NCCN2CCNCC2)ccc1Nc1ncc2c(n1)N(C1CCCC1)CC(F)(F)C(=O)N2C [Example I-49, 4-(9-cyclopentyl-7,7-difluoro-5-methyl-6-oxo-6,7,8,9-tetrahydro-5H-pyrimido[4,5-b][1,4]diazepin-2-ylamino)-3-methoxy-N-(2-piperazin-1-yl-ethyl)-benzamide]",0.001 to 0.05
4,"COc1cc(C(=O)NC2CC3CCC(C2)N3C)ccc1Nc1ncc2c(n1)N(C1CCCC1)CC(F)(F)C(=O)N2C (stereo not drawn) [Example I-50, 4-(9-cyclopentyl-7,7-difluoro-5-methyl-6-oxo-6,7,8,9-tetrahydro-5H-pyrimido[4,5-b][1,4]diazepin-2-ylamino)-3-methoxy-N-(8-methyl-8-aza-bicyclo[3.2.1]oct-3-yl)-benzamide]",0.001 to 0.05
5,"COc1cc(C(=O)NCCc2c[nH]c3ccccc23)ccc1Nc1ncc2c(n1)N(C1CCCC1)CC(F)(F)C(=O)N2C [Example I-51, 4-(9-cyclopentyl-7,7-difluoro-5-methyl-6-oxo-6,7,8,9-tetrahydro-5H-pyrimido[4,5-b][1,4]diazepin-2-ylamino)-N-[2-(1H-indol-3-yl)-ethyl]-3-methoxy-benzamide]",0.051 to 0.5
6,"COc1cc(C(=O)NCCN(C)C)ccc1Nc1ncc2c(n1)N(C1CCCC1)CC(F)(F)C(=O)N2C [Example I-52, 4-(9-cyclopentyl-7,7-difluoro-5-methyl-6-oxo-6,7,8,9-tetrahydro-5H-pyrimido[4,5-b][1,4]diazepin-2-ylamino)-N-(2-dimethylamino-ethyl)-3-methoxy-benzamide]",0.001 to 0.05
7,"COc1cc(C(=O)NCCCNC2CCCCC2)ccc1Nc1ncc2c(n1)N(C1CCCC1)CC(F)(F)C(=O)N2C [Example I-53, N-(3-cyclohexylamino-propyl)-4-(9-cyclopentyl-7,7-difluoro-5-methyl-6-oxo-6,7,8,9-tetrahydro-5H-pyrimido[4,5-b][1,4]diazepin-2-ylamino)-3-methoxy-benzamide]",0.001 to 0.05
8,"COc1cc(C(=O)NCC(C)(C)CN(C)C)ccc1Nc1ncc2c(n1)N(C1CCCC1)CC(F)(F)C(=O)N2C [Example I-60, 4-(9-cyclopentyl-7,7-difluoro-5-methyl-6-oxo-6,7,8,9-tetrahydro-5H-pyrimido[4,5-b][1,4]diazepin-2-ylamino)-N-(3-dimethylamino-2,2-dimethyl-propyl)-3-methoxy-benzamide]",0.001 to 0.05
9,"COc1cc(C(=O)NCCCn2ccnc2)ccc1Nc1ncc2c(n1)N(C1CCCC1)CC(F)(F)C(=O)N2C [Example I-61, 4-(9-cyclopentyl-7,7-difluoro-5-methyl-6-oxo-6,7,8,9-tetrahydro-5H-pyrimido[4,5-b][1,4]diazepin-2-ylamino)-N-(3-imidazol-1-yl-propyl)-3-methoxy-benzamide]",0.001 to 0.05
10,"COc1cc(C(=O)NC2CCN(c3ccncc3)CC2)ccc1Nc1ncc2c(n1)N(C1CCCC1)CC(F)(F)C(=O)N2C [Example I-62, 4-(9-cyclopentyl-7,7-difluoro-5-methyl-6-oxo-6,7,8,9-tetrahydro-5H-pyrimido[4,5-b][1,4]diazepin-2-ylamino)-3-methoxy-N-(3,4,5,6-tetrahydro-2H-[1,4′]bipyridinyl-4-yl)-benzamide]",0.001 to 0.05
11,"COc1cc(C(=O)NC2CCN(C3CCCC3)CC2)ccc1Nc1ncc2c(n1)N(C1CCCC1)CC(F)(F)C(=O)N2C [Example I-63, 4-(9-cyclopentyl-7,7-difluoro-5-methyl-6-oxo-6,7,8,9-tetrahydro-5H-pyrimido[4,5-b][1,4]diazepin-2-ylamino)-N-(1-cyclopentyl-piperidin-4-yl)-3-methoxy-benzamide]",0.001 to 0.05
12,"COc1cc(C(=O)NC2CCN(C(C)C)CC2)ccc1Nc1ncc2c(n1)N(C1CCCC1)CC(F)(F)C(=O)N2C [Example I-64, 4-(9-cyclopentyl-7,7-difluoro-5-methyl-6-oxo-6,7,8,9-tetrahydro-5H-pyrimido[4,5-b][1,4]diazepin-2-ylamino)-N-(1-isopropyl-piperidin-4-yl)-3-methoxy-benzamide]",0.001 to 0.05
13,"COc1cc(C(=O)NC2CC(C)(C)NC(C)(C)C2)ccc1Nc1ncc2c(n1)N(C1CCCC1)CC(F)(F)C(=O)N2C [Example I-65, 4-(9-cyclopentyl-7,7-difluoro-5-methyl-6-oxo-6,7,8,9-tetrahydro-5H-pyrimido[4,5-b][1,4]diazepin-2-ylamino)-3-methoxy-N-(2,2,6,6-tetramethyl-piperidin-4-yl)-benzamide]",0.001 to 0.05
14,"COc1cc(C(=O)NC2CCN(C3CC3)CC2)ccc1Nc1ncc2c(n1)N(C1CCCC1)CC(F)(F)C(=O)N2C [Example I-66, 4-(9-cyclopentyl-7,7-difluoro-5-methyl-6-oxo-6,7,8,9-tetrahydro-5H-pyrimido[4,5-b][1,4]diazepin-2-ylamino)-N-(1-cyclopropyl-piperidin-4-yl)-3-methoxy-benzamide]",0.001 to 0.05
15,"CCN1CCC(NC(=O)c2ccc(Nc3ncc4c(n3)N(C3CCCC3)CC(F)(F)C(=O)N4C)c(OC)c2)CC1 [Example I-67, 4-(9-cyclopentyl-7,7-difluoro-5-methyl-6-oxo-6,7,8,9-tetrahydro-5H-pyrimido[4,5-b][1,4]diazepin-2-ylamino)-N-(1-ethyl-piperidin-4-yl)-3-methoxy-benzamide]",0.001 to 0.05
16,"COc1cc(C(=O)N[C@H]2CC[C@@H](O)CC2)ccc1Nc1ncc2c(n1)N(C1CCCC1)CC(F)(F)C(=O)N2C [Example I-68, cis-4-(9-cyclopentyl-7,7-difluoro-5-methyl-6-oxo-6,7,8,9-tetrahydro-5H-pyrimido[4,5-b][1,4]diazepin-2-ylamino)-N-(4-hydroxy-cyclohexyl)-3-methoxy-benzamide]",0.001 to 0.05

# Next, values leading:
row,IC50 [µM],SMILES
1,0.001 to 0.05,"COc1cc(C(=O)NCCCCO)ccc1Nc1ncc2c(n1)N(C1CCCC1)CC(F)(F)C(=O)N2C [Example I-39, 4-(9-cyclopentyl-7,7-difluoro-5-methyl-6-oxo-6,7,8,9-tetrahydro-5H-pyrimido[4,5-b][1,4]diazepin-2-ylamino)-N-(4-hydroxy-butyl)-3-methoxy-benzamide]"
2,0.001 to 0.05,"CCOCCNC(=O)c1ccc(Nc2ncc3c(n2)N(C2CCCC2)CC(F)(F)C(=O)N3C)c(OC)c1 [Example I-40, 4-(9-cyclopentyl-7,7-difluoro-5-methyl-6-oxo-6,7,8,9-tetrahydro-5H-pyrimido[4,5-b][1,4]diazepin-2-ylamino)-N-(2-ethoxy-ethyl)-3-methoxy-benzamide]"
3,0.001 to 0.05,"COc1cc(C(=O)NCCCO)ccc1Nc1ncc2c(n1)N(C1CCCC1)CC(F)(F)C(=O)N2C [Example I-41, 4-(9-cyclopentyl-7,7-difluoro-5-methyl-6-oxo-6,7,8,9-tetrahydro-5H-pyrimido[4,5-b][1,4]diazepin-2-ylamino)-N-(3-hydroxy-propyl)-3-methoxy-benzamide]"
4,0.001 to 0.05,"COc1cc(C(=O)NCc2cc(Cl)cc(Cl)c2)ccc1Nc1ncc2c(n1)N(C1CCCC1)CC(F)(F)C(=O)N2C [Example I-42, 4-(9-cyclopentyl-7,7-difluoro-5-methyl-6-oxo-6,7,8,9-tetrahydro-5H-pyrimido[4,5-b][1,4]diazepin-2-ylamino)-N-(3,5-dichloro-benzyl)-3-methoxy-benzamide]"
5,0.001 to 0.05,"COc1cc(C(=O)N[C@H]2CCC[C@H]2C(N)=O)ccc1Nc1ncc2c(n1)N(C1CCCC1)CC(F)(F)C(=O)N2C [Example I-44, N-[(1S,2R)-(2-carbamoyl-cyclopentyl)]-4-(9-cyclopentyl-7,7-difluoro-5-methyl-6-oxo-6,7,8,9-tetrahydro-5H-pyrimido[4,5-b][1,4]diazepin-2-ylamino)-3-methoxy-benzamide]"
6,0.001 to 0.05,"COc1cc(C(=O)NCCN2CCCC2)ccc1Nc1ncc2c(n1)N(C1CCCC1)CC(F)(F)C(=O)N2C [Example I-45, 4-(9-cyclopentyl-7,7-difluoro-5-methyl-6-oxo-6,7,8,9-tetrahydro-5H-pyrimido[4,5-b][1,4]diazepin-2-ylamino)-3-methoxy-N-(2-pyrrolidin-1-yl-ethyl)-benzamide]"
7,0.001 to 0.05,"COc1cc(C(=O)NCCCNC(C)C)ccc1Nc1ncc2c(n1)N(C1CCCC1)CC(F)(F)C(=O)N2C [Example I-46, 4-(9-cyclopentyl-7,7-difluoro-5-methyl-6-oxo-6,7,8,9-tetrahydro-5H-pyrimido[4,5-b][1,4]diazepin-2-ylamino)-N-(3-isopropylamino-propyl)-3-methoxy-benzamide]"
8,0.001 to 0.05,"COc1cc(C(=O)NCCN2CCN(C)CC2)ccc1Nc1ncc2c(n1)N(C1CCCC1)CC(F)(F)C(=O)N2C [Example I-47, 4-(9-cyclopentyl-7,7-difluoro-5-methyl-6-oxo-6,7,8,9-tetrahydro-5H-pyrimido[4,5-b][1,4]diazepin-2-ylamino)-3-methoxy-N-[2-(4-methyl-piperazin-1-yl)-ethyl]-benzamide]"
